Values joined by “and” are separate entries in the source; they are usually repeats but may differ in a detail not shown here. Identical values can stand only once.
Legend:
[1] = test system: diet induced obese (DIO) mice; test: Hyperinsulinemic clamps in diet induced obese (DIO) mice; type: in vivo
Experimental: Following 28 days of daily dosing with Cotadutide (10 nmol/kg), Liraglutide (5 nmol/kg; GLP-1 agonist) or g1437 (5 nmol/kg; a Gcg analog), mice underwent continuous infusion of 4 mU/kg/min insulin and [3H]-glucose to assess glucose turnover. Tissue-specific glucose uptake was assessed using 14C-2-deoxyglucose.

[2] = test system: brown adipose tissue; test: [^18F]FDG uptake by PET imaging (separate study); type: in vivo, mice
From the text: Finally, glucose uptake was elevated in brown adipose tissue in Cotadutide treated mice, which was confirmed in a separate study of [^18F]FDG uptake by PET imaging.

[3] = Phase 2a: body weight; type: in vivo, human; settings: for Weight, Absolute Change From Day 1, Difference in LS Mean Change (vs Placebo) / Weight, Absolute Change From Day 1, LS Mean Change / Weight, Percent Change from Day 1, Difference in LS Mean Change (vs Placebo) / Weight, Percent Change from Day 1, LS Mean Change: ANCOVA; for Weight, Absolute Change From Day 1, Difference in LS Mean Change (vs Placebo) / Weight, Absolute Change From Day 1, LS Mean Change / Weight, Percent Change from Day 1, Difference in LS Mean Change (vs Placebo) / Weight, Percent Change from Day 1, LS Mean Change / Weight, Absolute Change From Day 1, Mean / Weight, Absolute Change From Day 1, Median / Weight, Percent Change from Day 1, Mean / Weight, Percent Change from Day 1, Median / Weight, End of Dosing (Day 33), Mean / Weight, End of Dosing (Day 33), Median: ITT
Experimental: (§1) Cotadutide was titrated from 50 μg up to 300 μg and administered once daily by subcutaneous (SC) injection over 32 days.
(§2) Cotadutide was administered at 50 μg once daily for 4 days, followed by 100 μg daily for 7 days, 200 μg daily for 7 days, and 300 μg daily for 14 days (n=20). Placebo was administered one daily for 32 days (n=20). Cotadutide and placebo were administered in the morning. Dosing commenced following predose baseline vital signs, blood tests (including HbA1c), an electrocardiogram (ECG), body weight measurement, and bioimpedance spectroscopy (BIS). Subjects then returned for daily dosing or remained overnight locally until Day 5, and thereafter, had visits at weekly intervals until a maintenance dose of 300 μg was established. Thus, Cotadutide or placebo was administered at the study site by study personal for the first four doses and on site on Days 5, 12, 19, and 32. At all other times, subjects preformed dosing at home.
Weight was measured after the subject had toileted and removed bulky clothing, including shoes. Whenever possible, the same calibrated scale was used for each measurement for any given subject.

[4] = test system: subjects with T2DM and renal impairment; test: Phase 2a: urine albumin:creatinine ratio (UACR); type: in vivo, human; settings: for UACR Relative Change from Baseline to End of Dosing (vs. Placebo): subjects with mean UACR > 3 mg/mmol at baseline (micro- or macroalbuminuria), 1-exponential of fold change
Experimental: as §1, §2
Mean urine albumin:creatinine ratio (UACR) was lower in the Cotadutide dose group compared to placebo from Day 19 until the end of dosing, and for 8 days into the follow-up period.

[5] = test system: subjects with T2DM and renal impairment; test: Phase 2a: total daily insulin dose adjustment; type: in vivo, human
Experimental: The effect of Cotadutide on insulin dose adjustment was evaluated for subjects on ≥20 U/day insulin. […] The mean percent reduction in total daily insulin dose from baseline until the end of dosing was statistically significant compared to placebo, especially in the HbA1c<8.0% subgroup (Table 15).

[6] = test system: subjects with T2DM and renal impairment; test: Phase 2a: adverse events; type: in vivo, human
Experimental: Only serious adverse events (SAEs) associated with protocol-related procedures were collected form time of signature of informed consent until the stat of the treatment period. All adverse events (AEs) were collected during the treatment period and follow-up period (Day 60±5). AEs and SAEs were graded by severity and relationship to Cotadutide or placebo, and SAEs were assessed for relationship to protocol procedures.

[7] = test system: patients with T2DM and chronic kidney disease (CKD) stage G3; test: Phase 2a: C-peptide levels; type: in vivo, human; settings: over 32 days; P<0.001
Experimental: Over 32 days, 21 patients received once-daily subcutaneous cotadutide (n=21) titrated up to 300 μg, and 20 patients received placebo (PBO). […] Serious adverse events (AEs) were balanced between treatment arms; treatment-related AEs were more frequent with cotadutide (71%) vs PBO (35%). The most common AEs were nausea (cotadutide, 33%; PBO, 20%) and vomiting (cotadutide, 24%; PBO, 5%). […] Thus, in patients with T2DM and chronic kidney disease, cotadutide improved overall glycemic control and glucose responses to an MMTT with acceptable tolerability. Improvements in albuminuria indicate that cotadutide can slow long-term progression of CKD.

[8] = Day 1 to Day 33, Insulin Dose < 20 U/day subgroup
[9] = Day 1 to Day 33, Insulin Dose ≥ 20 U/day subgroup
[10] = Insulin Dose < 20 U/day subgroup
[11] = Insulin Dose ≥ 20 U/day subgroup
[12] = subjects with mean UACR > 3 mg/mmol at baseline
[13] = subjects with mean UACR > 3 mg/mmol at baseline, ITT

With `CCCCCCCCCCCCCCCC(=O)N[C@@H](CCC(=O)NCCCC[C@H](NC(=O)[C@H](CC(=O)O)NC(=O)[C@H](CO)NC(=O)[C@@H](NC(=O)[C@H](Cc1ccccc1)NC(=O)[C@@H](NC(=O)CNC(=O)[C@H](CCC(N)=O)NC(=O)[C@H](CO)NC(=O)[C@@H](N)Cc1c[nH]cn1)[C@@H](C)O)[C@@H](C)O)C(=O)N[C@@H](CO)C(=O)N[C@@H](CCC(=O)O)C(=O)N[C@@H](Cc1ccc(O)cc1)C(=O)N[C@@H](CC(C)C)C(=O)N[C@@H](CC(=O)O)C(=O)N[C@@H](CO)C(=O)N[C@@H](CCC(=O)O)C(=O)N[C@@H](CCCNC(=N)N)C(=O)N[C@@H](C)C(=O)N[C@@H](CCCNC(=N)N)C(=O)N[C@@H](CC(=O)O)C(=O)N[C@@H](Cc1ccccc1)C(=O)N[C@H](C(=O)N[C@@H](C)C(=O)N[C@@H](Cc1c[nH]c2ccccc12)C(=O)N[C@@H](CC(C)C)C(=O)N[C@@H](CCC(=O)O)C(=O)N[C@@H](C)C(=O)NCC(=O)NCC(=O)O)C(C)C)C(=O)O` [Cotadutide] the insulin sensitivity [1] was “improves insulin sensitivity”, the “total insulin levels during the clamp” value ([1]; 4 mU/kg/min insulin infusion) was “remained lower” and the “glucose uptake in brown adipose tissue” value ([1]; 14C-2-deoxyglucose) was “elevated”. For the same molecule, the “Fasting insulin compared with vehicle” value ([1]; 28 days daily dosing) was “dramatically lower”, the glucose disposal rate ([1]; clamp) was “increased” and the “glucose infusion rate to maintain euglycemia ˜130 mg/dL” value ([1]; clamp) was “significantly higher”. The “[^18F]FDG uptake by PET imaging, brown adipose tissue” value [2] was “confirmed”, the “weight loss, percentage” value ([3]; <20 U/day Insulin group) was −5.38% and the “Weight, Absolute Change From Day 1, Difference in LS Mean Change (vs Placebo)” value [3, 8] was -3.99 kg. The “Weight, Absolute Change From Day 1, LS Mean Change” value [3, 8] was -4.72 kg, the “Weight, Percent Change from Day 1, Difference in LS Mean Change (vs Placebo)” value [3, 8] was −4.74% and the “Weight, Percent Change from Day 1, LS Mean Change” value [3, 8] was −5.38%. The “Weight, Absolute Change From Day 1, Mean” value [3, 8] was -4.74 kg, the “Weight, Absolute Change From Day 1, Median” value [3, 8] was -4.50 kg and the “Weight, Percent Change from Day 1, Mean” value [3, 8] was −5.26%. The “Weight, Percent Change from Day 1, Median” value [3, 8] was −4.53%, the “Weight, Absolute Change From Day 1, Difference in LS Mean Change (vs Placebo)” value [3, 9] was -2.79 kg and the “Weight, Absolute Change From Day 1, LS Mean Change” value [3, 9] was -2.66 kg. The “Weight, Percent Change from Day 1, Difference in LS Mean Change (vs Placebo)” value [3, 9] was −2.66%, the “Weight, Percent Change from Day 1, LS Mean Change” value [3, 9] was −2.69% and the “Weight, Absolute Change From Day 1, Mean” value [3, 9] was -2.60 kg. For the same molecule, the “Weight, Absolute Change From Day 1, Median” value [3, 9] was -1.90 kg, the “Weight, Percent Change from Day 1, Mean” value [3, 9] was −2.61% and the “Weight, Percent Change from Day 1, Median” value [3, 9] was −2.00%. The “Weight, Absolute Change From Day 1, Difference in LS Mean Change (vs Placebo)” value ([3]; Day 1 to Day 33, Total) was -3.28 kg, the “Weight, Absolute Change From Day 1, LS Mean Change” value ([3]; Day 1 to Day 33, Total) was -3.41 kg and the “Weight, Percent Change from Day 1, Difference in LS Mean Change (vs Placebo)” value ([3]; Day 1 to Day 33, Total) was −3.47%. For the same molecule, the “Weight, Percent Change from Day 1, LS Mean Change” value ([3]; Day 1 to Day 33, Total) was −3.69%, the “Weight, Absolute Change From Day 1, Mean” value ([3]; Day 1 to Day 33, Total) was -3.39 kg and the “Weight, Absolute Change From Day 1, Median” value ([3]; Day 1 to Day 33, Total) was -3.60 kg. The “Weight, Percent Change from Day 1, Mean” value ([3]; Day 1 to Day 33, Total) was −3.59%, the “Weight, Percent Change from Day 1, Median” value ([3]; Day 1 to Day 33, Total) was −3.68% and the “LS mean reduction in absolute body weight” value ([3]; Day 1 to Day 33, all subjects) was -3.41 kg. The “LS mean reduction in percentage body weight” value ([3]; Day 1 to Day 33, all subjects) was −3.69% and −3.7%, the “Weight, End of Dosing (Day 33), Mean” value [3, 10] was 91.27 kg and the “Weight, End of Dosing (Day 33), Median” value [3, 10] was 88.70 kg. The “Weight, End of Dosing (Day 33), Mean” value [3, 11] was 94.13 kg, the “Weight, End of Dosing (Day 33), Median” value [3, 11] was 96.15 kg and the “Weight, End of Dosing (Day 33), Mean” value ([3]; Total) was 93.08 kg. The “Weight, End of Dosing (Day 33), Median” value ([3]; Total) was 94.10 kg, the “weight loss, percentage” value ([3]; ≥20 U/day Insulin group) was −2.69% and the “Urine Albumin/Creatinine, End of Dosing (Day 33), Mean” value ([4]; Total, ITT) was 10.06 mg/mmol. The “Urine Albumin/Creatinine, End of Dosing (Day 33), Median” value ([4]; Total, ITT) was 2.00 mg/mmol, the “UACR LS Mean Change” value ([4]; baseline to Day 33, ANCOVA, Total, ITT) was -3.05 mg/mmol and the “UACR Change from Baseline, Mean” value ([4]; baseline to Day 33, Total, ITT) was -3.05 mg/mmol. The “UACR Change from Baseline, Median” value ([4]; baseline to Day 33, Total, ITT) was -0.60 mg/mmol, the “UACR Difference in LS Mean Change (vs Placebo)” value ([4]; baseline to Day 33, Total, ITT) was -5.07 mg/mmol and the “Fold Change in Log-Transformed UACR (vs. Placebo)” value ([4]; baseline to end of dosing, subjects with mean UACR > 3 mg/mmol at baseline) was −0.70. For the same molecule, the “UACR Geometric Mean (end of dosing relative to baseline)” value [4, 12] was 0.511, the “UACR Geometric Mean Ratio (vs. Placebo)” value [4, 12] was 0.4945 and the “UACR Relative Change from Baseline to End of Dosing (vs. Placebo)” value [4] was 50.6%. The “UACR Relative Change from Baseline to End of Dosing (vs. Placebo)” value ([4]; listed as MEDI0382) was 50.55%, the “Log-transformed UACR, End of Dosing (Day 33), Mean” value [4, 13] was 1.767 and the “Log-transformed UACR, End of Dosing (Day 33), Median” value [4, 13] was 1.253. For the same molecule, the “reduction in insulin dose” value ([5]; over 32 days, P=0.012) was 35.2%, the “percentage reduction from baseline in total daily insulin dose at the end of treatment” value ([5]; participants with insulin dose of at least 20 U/day, Day −2 to end of treatment) was −35.2% and the deaths ([6]; diabetic ketoacidosis and cholecystitis, deemed related) was “one death”. The “Serious adverse events (SAEs) vs placebo” value ([6]; in vivo) was “balanced”, the “TEAE that led to withdrawal” value ([6]; in vivo) was “two subjects” and the “incidence of overall TEAEs and product-related TEAEs vs placebo” value ([6]; in vivo) was “higher”. For the same molecule, the “most frequently reported TEAEs (preferred term)” value ([6]; in vivo) was “nausea, vomiting, diarrhea, and dyspepsia”, the “nausea, frequency” value ([6]; in vivo) was 33% and the “treatment-related AEs, frequency” value ([6]; in vivo) was 71%. For the same molecule, the “vomiting, frequency” value ([6]; in vivo) was 24% and the “C-peptide levels, LS mean change vs PBO” value [7] was 0.88 µg/L.

Source: patent US20210213104A1, “GLUCAGON AND GLP-1 CO-AGONISTS FOR THE TREATMENT OF CHRONIC KIDNEY DISEASE AND DIABETIC KIDNEY DISEASE IN TYPE 2 DIABETES” (MEDIMMUNE LIMITED, priority 2020, published 2021)
